According to patent publication US20230416330A1, “Optimized GIP Peptide Analogues” (Antag Therapeutics ApS, priority 2019, published 2023):
Starred links: 1 amine or outer side, 2 acyl side, 3 side chain; linkers in the order of their positions; H or OH if unused. Non-standard residues stand in square brackets, D forms with d. Residues, ends and D or L forms follow the SMILES beside them. Groups on a side chain read outwards from the residue. *: point of attachment. C18 diacid = O=C(O)CCCCCCCCCCCCCCCCC(=O)*; C16 diacid = O=C(O)CCCCCCCCCCCCCCC(=O)*; γGlu = O=C(O)[C@H](CCC(=O)[*:2])N[*:1]; Glutaryl = O=C(CCCC(=O)[*:2])[*:1]; Nle = CCCC[C@H](N)C(=O)O; AEEA = NCCOCCOCC(=O)O; Aib = CC(C)(N)C(=O)O

Molecular target: T1, human GIP receptor (Homo sapiens, UniProt P48546)
T1 construct: host or cells: HEK-293 cells, transient transfection (Lipofectamine 2000), cDNA in pCMV-Script vector
T1 sequence (P48546 22-466): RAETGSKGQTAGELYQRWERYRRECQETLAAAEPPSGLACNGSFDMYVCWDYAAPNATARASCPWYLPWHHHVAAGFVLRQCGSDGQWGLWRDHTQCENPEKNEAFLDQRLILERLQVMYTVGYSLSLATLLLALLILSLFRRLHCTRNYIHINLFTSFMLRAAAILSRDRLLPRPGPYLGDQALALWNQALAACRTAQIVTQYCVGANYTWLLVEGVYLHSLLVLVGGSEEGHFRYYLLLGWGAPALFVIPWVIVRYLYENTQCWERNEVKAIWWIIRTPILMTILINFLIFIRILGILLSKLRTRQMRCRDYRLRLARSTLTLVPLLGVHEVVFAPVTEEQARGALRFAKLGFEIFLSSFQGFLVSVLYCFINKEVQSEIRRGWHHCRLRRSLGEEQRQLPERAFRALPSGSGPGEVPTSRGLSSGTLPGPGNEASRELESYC
Assay: cAMP assay Alternative 1 (CisBio assay), GIPR antagonism
Type: cell-based
Conditions: Table 2B; % inhibition of Emax
Description: HEK293 cells were cultured in 10% CO2 and 37° C. in Dulbecco's modified Eagle's medium supplemented with 10% fetal bovine serum, 2 mM glutamine, 180 units/ml penicillin, and 45 µg/ml streptomycin. Transient transfection with hGIPR for the CisBio assay from Table 2C was performed by using Lipofectamine 2000.
The in vitro functional activity of compounds towards human GIP receptor can also be determined in HEK-293 cells transiently expressing the receptor. On the day of the assay, cells were resuspended in HBSS buffer (Gibco, 14025-50) supplemented with […] (Gibco, 15630-106), 0.1% Pluronic F-68 (Gibco, 24040-032) and 0.1% casein (Sigma, C4765), and plated in 384-well plates at a density of 5000 cells/well. The GIP peptide analogues of the present disclosure were diluted in HBSS buffer supplemented with 20 mM HEPES, 0.1% pluronic, 0.1% casein and 500 uM IBMX. […] The resulting decrease in intracellular cAMP was quantitatively determined using the CisBio cAMP Dynamic 2 HTRF Assay Kit. The assay is based on a competition between native cAMP produced by cells and cAMP labeled with the dye d2 for binding to a cryptate labeled antibody. The specific signal (i.e. energy transfer signal) is inversely proportional to the concentration of cAMP in the sample.
The cAMP-d2 conjugate and the antibody anti-cAMP-Cryptate, both diluted in lysis buffer provided in the kit, were added to the cells according to the manufacturer's protocol. The resulting competitive assay was incubated for 60 minutes at room temperature, and the signal was detected by using a PerkinElmer Envision® instrument with excitation at 320 nm and emission at 665 nm and 620 nm. The HTRF ratio (emission at 665 nm/620 nm*10,000) is inversely proportional to the amount of cAMP present and is converted to nM cAMP per well using a cAMP standard curve. The dose-response curves were fitted using the non-linear regression analysis (four-logistic parameter equation) in GraphPad Prism, whereby pIC50 values were estimated. To test for agonistic properties at the GIP receptor, compounds were diluted and added to cells as described above and incubated for 30 min at 37° C. The resulting increase in intracellular cAMP was determined using the CisBio cAMP Dynamic 2 HTRF Assay Kit as described above.
The dose-response curves were fitted using the non-linear regression analysis (four-logistic parameter equation) in GraphPad Prism, whereby pIC50 values were estimated.

Going from CC[C@H](C)[C@H](NC(=O)[C@H](CO)NC(=O)[C@H](Cc1ccc(O)cc1)NC(=O)[C@H](CC(=O)O)NC(=O)[C@H](CO)NC(=O)[C@@H](NC(=O)[C@H](Cc1ccccc1)NC(=O)[C@@H](NC(=O)CNC(=O)[C@@H](N)CCC(=O)O)[C@@H](C)O)[C@@H](C)CC)C(=O)N[C@@H](C)C(=O)N[C@@H](CC(C)C)C(=O)N[C@@H](CC(=O)O)C(=O)N[C@@H](CCCCN)C(=O)N[C@H](C(=O)N[C@@H](CCCCNC(=O)COCCOCCNC(=O)COCCOCCNC(=O)CC[C@H](NC(=O)CCCCCCCCCCCCCCCCC(=O)O)C(=O)O)C(=O)N[C@@H](CCC(N)=O)C(=O)N[C@@H](CCC(N)=O)C(=O)N[C@@H](CC(=O)O)C(=O)N[C@@H](Cc1ccccc1)C(=O)N[C@H](C(=O)N[C@@H](CCC(=O)O)C(=O)N[C@@H](Cc1c[nH]c2ccccc12)C(=O)N[C@@H](CC(C)C)C(=O)N[C@@H](CC(C)C)C(=O)N[C@@H](C)C(=O)N[C@@H](CCC(N)=O)C(=O)N[C@@H](CCCCN)C(=O)N1CCC[C@H]1C(=O)N[C@@H](CO)C(=O)N[C@@H](CO)C(=O)NCC(=O)N[C@@H](C)C(=O)N1CCC[C@H]1C(=O)N1CCC[C@H]1C(=O)N1CCC[C@H]1C(=O)N[C@@H](CO)C(=O)O)C(C)C)[C@@H](C)CC [AT682] (H-EGTFISDYSIALDKIK([AEEA-AEEA-γGlu-C18 diacid])QQDFVEWLLAQKPSSGAPPPS-OH; N-terminus assumed) to CCCC[C@H](NC(=O)[C@H](C)NC(=O)[C@@H](NC(=O)[C@H](CO)NC(=O)[C@H](Cc1ccc(O)cc1)NC(=O)[C@H](CC(=O)O)NC(=O)[C@H](CO)NC(=O)[C@@H](NC(=O)[C@H](Cc1ccccc1)NC(=O)[C@@H](NC(=O)CNC(=O)[C@@H](N)CCC(=O)O)[C@@H](C)O)[C@@H](C)CC)[C@@H](C)CC)C(=O)N[C@@H](CC(=O)O)C(=O)N[C@@H](CCCCN)C(=O)N[C@H](C(=O)N[C@@H](CCCCNC(=O)COCCOCCNC(=O)COCCOCCNC(=O)CC[C@H](NC(=O)CCCCCCCCCCCCCCCCC(=O)O)C(=O)O)C(=O)N[C@@H](CCC(N)=O)C(=O)N[C@@H](CCC(N)=O)C(=O)N[C@@H](CC(=O)O)C(=O)N[C@@H](Cc1ccccc1)C(=O)N[C@H](C(=O)N[C@@H](CCC(=O)O)C(=O)N[C@@H](Cc1c[nH]c2ccccc12)C(=O)N[C@@H](CC(C)C)C(=O)N[C@@H](CC(C)C)C(=O)N[C@@H](C)C(=O)N[C@@H](CCC(N)=O)C(=O)N[C@@H](CCCCN)C(=O)N1CCC[C@H]1C(=O)N[C@@H](CO)C(=O)N[C@@H](CO)C(=O)NCC(=O)N[C@@H](C)C(=O)N1CCC[C@H]1C(=O)N1CCC[C@H]1C(=O)N1CCC[C@H]1C(=O)N[C@@H](CO)C(=O)O)C(C)C)[C@@H](C)CC [AT683] (H-EGTFISDYSIA[Nle]DKIK([AEEA-AEEA-γGlu-C18 diacid])QQDFVEWLLAQKPSSGAPPPS-OH; N-terminus assumed), the “cAMP antagonism % inhib” value rises from 89% to 93%.

Compared with CCCC[C@H](NC(=O)C(C)(C)NC(=O)[C@@H](NC(=O)[C@H](CO)NC(=O)[C@H](Cc1ccc(O)cc1)NC(=O)[C@H](CC(=O)O)NC(=O)[C@H](CO)NC(=O)[C@@H](NC(=O)[C@H](Cc1ccccc1)NC(=O)[C@@H](NC(=O)CNC(=O)[C@@H](N)CCC(=O)O)[C@@H](C)O)[C@@H](C)CC)[C@@H](C)CC)C(=O)N[C@@H](CC(=O)O)C(=O)N[C@@H](CCCCN)C(=O)N[C@H](C(=O)N[C@@H](CCCCNC(=O)COCCOCCNC(=O)COCCOCCNC(=O)CC[C@H](NC(=O)CCCCCCCCCCCCCCCCC(=O)O)C(=O)O)C(=O)N[C@@H](CCC(N)=O)C(=O)N[C@@H](CCC(N)=O)C(=O)N[C@@H](CC(=O)O)C(=O)N[C@@H](Cc1ccccc1)C(=O)N[C@H](C(=O)N[C@@H](CCC(=O)O)C(=O)N[C@@H](Cc1c[nH]c2ccccc12)C(=O)N[C@@H](CC(C)C)C(=O)N[C@@H](CC(C)C)C(=O)N[C@@H](C)C(=O)N[C@@H](CCC(N)=O)C(=O)N[C@@H](CCCCN)C(=O)N1CCC[C@H]1C(=O)N[C@@H](CO)C(=O)N[C@@H](CO)C(=O)NCC(=O)N[C@@H](C)C(=O)N1CCC[C@H]1C(=O)N1CCC[C@H]1C(=O)N1CCC[C@H]1C(=O)N[C@@H](CO)C(=O)O)C(C)C)[C@@H](C)CC [AT686] (H-EGTFISDYSI[Aib][Nle]DKIK([AEEA-AEEA-γGlu-C18 diacid])QQDFVEWLLAQKPSSGAPPPS-OH; N-terminus assumed), CCCC[C@H](NC(=O)[C@H](C)NC(=O)[C@@H](NC(=O)[C@H](CO)NC(=O)[C@H](Cc1ccc(O)cc1)NC(=O)[C@H](CC(=O)O)NC(=O)[C@H](CO)NC(=O)[C@@H](NC(=O)[C@H](Cc1ccccc1)NC(=O)[C@@H](NC(=O)CNC(=O)CCCC(=O)O)[C@@H](C)O)[C@@H](C)CC)[C@@H](C)CC)C(=O)N[C@@H](CC(=O)O)C(=O)N[C@@H](CCCCN)C(=O)N[C@H](C(=O)N[C@@H](CCCCNC(=O)COCCOCCNC(=O)COCCOCCNC(=O)CC[C@H](NC(=O)CCCCCCCCCCCCCCCCC(=O)O)C(=O)O)C(=O)N[C@@H](CCC(N)=O)C(=O)N[C@@H](CCC(N)=O)C(=O)N[C@@H](CC(=O)O)C(=O)N[C@@H](Cc1ccccc1)C(=O)N[C@H](C(=O)N[C@@H](CCC(=O)O)C(=O)N[C@@H](Cc1c[nH]c2ccccc12)C(=O)N[C@@H](CC(C)C)C(=O)N[C@@H](CC(C)C)C(=O)N[C@@H](C)C(=O)N[C@@H](CCC(N)=O)C(=O)N[C@@H](CCCCN)C(=O)N1CCC[C@H]1C(=O)N[C@@H](CO)C(=O)N[C@@H](CO)C(=O)NCC(=O)N[C@@H](C)C(=O)N1CCC[C@H]1C(=O)N1CCC[C@H]1C(=O)N1CCC[C@H]1C(=O)N[C@@H](CO)C(=O)O)C(C)C)[C@@H](C)CC [AT702] (Glutaryl-GTFISDYSIA[Nle]DKIK([AEEA-AEEA-γGlu-C18 diacid])QQDFVEWLLAQKPSSGAPPPS-OH) is higher in “cAMP antagonism % inhib” value: 82% for the first, 85% for the second.

In the case of CCCC[C@H](NC(=O)[C@H](C)NC(=O)[C@@H](NC(=O)[C@H](CO)NC(=O)[C@H](Cc1ccc(O)cc1)NC(=O)[C@H](CC(=O)O)NC(=O)[C@H](CO)NC(=O)[C@@H](NC(=O)[C@H](Cc1ccccc1)NC(=O)[C@@H](NC(=O)CNC(=O)CCCC(=O)O)[C@@H](C)O)[C@@H](C)CC)[C@@H](C)CC)C(=O)N[C@@H](CC(=O)O)C(=O)N[C@@H](CCCCN)C(=O)N[C@H](C(=O)N[C@@H](CCCCNC(=O)CCCCCCCCCCCCCCC(=O)O)C(=O)N[C@@H](CCC(N)=O)C(=O)N[C@@H](CCC(N)=O)C(=O)N[C@@H](CC(=O)O)C(=O)N[C@@H](Cc1ccccc1)C(=O)N[C@H](C(=O)N[C@@H](CCC(=O)O)C(=O)N[C@@H](Cc1c[nH]c2ccccc12)C(=O)N[C@@H](CC(C)C)C(=O)N[C@@H](CC(C)C)C(=O)N[C@@H](C)C(=O)N[C@@H](CCC(N)=O)C(=O)N[C@@H](CCCCN)C(=O)N1CCC[C@H]1C(=O)N[C@@H](CO)C(=O)N[C@@H](CO)C(=O)NCC(=O)N[C@@H](C)C(=O)N1CCC[C@H]1C(=O)N1CCC[C@H]1C(=O)N1CCC[C@H]1C(=O)N[C@@H](CO)C(=O)O)C(C)C)[C@@H](C)CC [AT700] (Glutaryl-GTFISDYSIA[Nle]DKIK(C16 diacid)QQDFVEWLLAQKPSSGAPPPS-OH), the “cAMP antagonism % inhib” value is reported as 89%.
